Reference: paper PMC6510928, “Characterisation of the Ral GTPase inhibitor RBC8 in human and mouse platelets” (Cellular Signalling, 2019)
pIC50: −log10 of the molar value.

Legend:
RalB = target: T1, RalB (Homo sapiens, UniProt P11234); experiment: GST-RalBP1 pulldown of RalB-GTP from RBC8-treated, CRP-stimulated human platelets, immunoblot densitometry; assay type: cell-based
T1 sequence (P11234 1-203): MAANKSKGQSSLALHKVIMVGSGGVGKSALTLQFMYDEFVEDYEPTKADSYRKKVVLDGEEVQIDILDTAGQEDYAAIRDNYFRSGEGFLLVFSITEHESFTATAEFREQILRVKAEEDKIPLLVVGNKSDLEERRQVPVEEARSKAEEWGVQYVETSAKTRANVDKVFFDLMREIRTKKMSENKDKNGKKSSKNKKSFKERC

RalA = target: T2, RalA (Homo sapiens, UniProt P11233); experiment: GST-RalBP1 pulldown of RalA-GTP from RBC8-treated, CRP-stimulated human platelets, immunoblot densitometry; assay type: cell-based
T2 sequence (P11233 1-203): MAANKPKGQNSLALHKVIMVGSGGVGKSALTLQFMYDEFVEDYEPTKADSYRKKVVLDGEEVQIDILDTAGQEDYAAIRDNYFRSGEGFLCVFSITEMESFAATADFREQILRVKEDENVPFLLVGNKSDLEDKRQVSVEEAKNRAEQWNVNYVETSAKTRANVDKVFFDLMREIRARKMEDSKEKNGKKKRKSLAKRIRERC

**Q.** Which results are given for COc1ccc(OC)c(C2C(C#N)=C(N)Oc3n[nH]c(-c4ccc5ccccc5c4)c32)c1 (centres unmarked) [RBC8]?
**A.** pIC50 (RalB): 5.64; pIC50 (RalA): 5.66
